Assay results: US11040052B2, “Methods and pharmaceutical compositions for modulating autophagy in a subject in need thereof” (INSERM (INSTITUT NATIONAL DE LA SANTE ET DE LA RECHERCHE …, priority 2013, dated 2021)
Entries after “also recorded” stand apart in the source; their conditions may differ.

Columns and labels:
AcCoA levels = test: Targeted analysis of AcCoA levels in cultured cells (HPLC-MS); type: cell-based, human; settings: for AcCoA levels: cells kept in rich medium; for cytosolic AcCoA levels: cytosolic fraction; for AcCoA levels in starved cells: nutrient-depleted (starved) cells in vitro
Method: Cells were trypsinized, pelleted at 1000 rpm for 4 min, washed with PBS and pelleted again at 1000 rpm for 4 min. Cells were then resuspended in 5 ml of ice-cold hyposmotic buffer and keep on ice for 5 min. Cells were broken to release nuclei using a pre-chilled Dounce homogenizer (20 strokes with a tight pestle) and then were then centrifuged at 228 g.
For in vitro experiments, cell pellets were resuspended in 300 μL of water with HEPES and EDTA (pH 7.4) at 1 mM containing internal standard acetylcoenzyme A (2-C13) at 1 mg/L, vortexed and heated at 100° C. for 1 min. Samples were incubated in liquid nitrogen for 1 min and thawed at room temperature two times. They were let for 1 h at −20° C. and centrifuged at 4° C. during 15 min at 13,000 g. Supernatants were transferred in HPLC vials and injected in HPLC/MS or kept at −80° C. until injection. For in vivo experiments, frozen tissues were placed in ice-cold homogenization tubes containing ceramic beads. Five μL of ice-cold methanol/water (80/20; v/v) were added for 1 mg of tissue. Tissues were homogenized two times for 20 s at 5,500 rpm using Precellys 24 tissue homogenator (Bertin Technologies, Montigny-le-Bretonneux, France). Samples were placed 10 min on ice. Next they were centrifuged at 4° C. during 15 min at 13,000 g. Supernatants were transferred in HPLC vials and injected in HPLC-MS system or kept at −80° C. until injection.
Targeted analyses were performed on Rapid Resolution Liquid Chromatography (RRLC) 1200SL system (Agilent Technologies, Waldbronn, Germany) coupled to a Triple Quadruple QQQ 6410 mass spectrometer (Agilent Technologies). RRLC analysis was done on 150×2.1 mm, 3.5 μm Eclipse Plus SB-Aq column with a pre-column 30 mm×2.1 mm 3.5 μm Eclipse plus (Agilent Technologies) with water containing 10 mmol/L of ammonium acetate and 0.01% of acetic acid in channel A and acetonitrile in channel B in gradient mode at a flow rate of 0.3 mL·min^−1: t=0 min 2% B; t=9 min 95% B; t=11 min 95% B; re-equilibration time of 3 min. Mass spectrometer analysis was done in positive electrospray ionization mode at +4 kV on the QQQ system operating in MRM mode. MRM transitions were optimized with standard of AcCoA and AcCoA A 2-C^13 with direct infusion. Two transitions were recorded for each compound; • AcCoA 810>303 CE (collision energy) 28V; fragmentor 180V • 810>428 CE 20V • AcCoA 2-C13 812>305 CE 28V; fragmentor 180V • 812>428 CE 24V […]

[1] = tested on: U2OS cells stably expressing GFP-LC3; test: Autophagy in cultured cells: GFP-LC3 puncta formation and LC3 lipidation with or without bafilomycin A1; type: cell-based, human; settings: for autophagic flux (GFP-LC3 puncta formation, LC3 lipidation): cells kept in rich medium, presence and absence of BafA1; for abolition of the effects of AcCoA-replenishing agents on starvation-induced protein deacetylation and autophagy: starved cells plus DCA, DMKG or KIC; for starvation-induced autophagy (GFP-LC3 puncta, LC3 lipidation, autophagic flux): nutrient-depleted (starved) cells in vitro
Method: U2OS, HeLa or H4 cells stably expressing GFP-LC3 were seeded in 96-well imaging plates (BD Falcon, Sparks, USA) 24 h before stimulation. Cells were treated with the indicated agents for 4 h. […] Images were analyzed for the presence of GFP-LC3 puncta in the cytoplasm by means of the BD Attovision software (BD Imaging Systems). Cell surfaces were segmented and divided into cytoplasmic and nuclear regions according to manufacturer standard proceedings. RB 2×2 and Marr-Hildreth algorithms were used to recognize cytoplasmic GFP-LC3 positive dots. Statistical analyses were implemented on the R software (http://www.r-project.org/). For quantitative analyses of protein acetylation, cell surfaces were segmented into cytoplasm and nuclei regions, and staining intensity of each individual cell was measured for statistical analysis.
Membranes were then sliced in different parts according to the molecular weight of the protein of interest to allow simultaneous detection of different antigens within the same experiment. Unspecific binding sites were saturated by incubating membranes for 1 h in 0.05% Tween 20 (v:v in TBS) supplemented with 5% non-fat powdered milk (w:v in TBS), followed by the overnight incubation with primary antibodies specific for acetylated-lysine, LC3, phospho-AMPK (Thr172), AMPK, phospho-ribosomal protein S6 kinase (Thr421/Ser424), ribosomal protein S6 kinase, or STQM/p62 (Santa Cruz Biotechnology). Development was performed with appropriate horseradish peroxidase (HRP)-labeled secondary antibodies (Southern Biotech, Birmingham, USA) plus the SuperSignal West Pico chemoluminescent substrate (Thermo Scientific-Pierce). An anti-glyceraldehyde-3-phosphate dehydrogenase antibody (Chemicon International, Temecula, USA) was used to control equal loading of lanes.
For immunoblotting, protein extracts obtained by cellular lysis via RIPA buffer were run on 4-12% Bis-Tris acrylamide (Invitrogen) and electrotransferred to […] PVDF membranes (Biorad, USA). Unspecific binding sites were saturated by incubating membranes for 1 h in 0.05% Tween 20 (v:v in TBS) supplemented with 5% non-fat powdered milk (w:v in TBS), followed by an overnight incubation with primary antibodies specific for, LC3, phospho-AMPK (Thr172), AMPK, phosphor-ACC (Ser79), ACC, phospho-ribosomal protein S6 kinase (Thr421/Ser424), ribosomal protein S6 kinase, or SQSTM/p62 (Abnova). Membranes were opportunely cut in order to allow simultaneous detection of different molecular weight proteins. Development was performed with horseradish peroxidase (HRP)-labeled secondary antibodies (Southern Biotech, Birmingham, USA) plus the SuperSignal West Pico chemo luminescent substrate (Thermo Scientific-Pierce). An anti-glyceraldehyde-3-phosphate dehydrogenase antibody (Abcam) and anti-Actin antibody (Abcam) were used to ensure equal loading of lanes. Quantification was performed by densitometry by means of Image J software.
U2OS and H4 cells stably expressing GFP-LC3 were seeded in 96-well or 384-well imaging plates (BD Falcon, Sparks, USA). 24 h before stimulation, ells were treated with the indicated agents for 6 hours in absence of lysososomal ATPase inhibitors and for 3 hours in presence of Bafilomycin A1. […] Images were analyzed for the detection of GFP-LC3 puncta in the cytoplasm by means of the BD Attovision software (BD Imaging Systems. Cellular regions of interest, cytoplasm and nucleus, were defined and segmented according to standard proceedings. RB 2×2 and Marr-Hildreth algorithms were employed to allow the detection of GFP LC3 puncta. Statistical analyses were conducted using the R and Prism softwares (http://www.r-project.org/). For quantitative analyses of protein acetylation, cell surfaces were segmented intocytoplasmic and nucleic regions, and staining intensity of each individual cell was measured for statistical analysis.

Compound | AcCoA levels (AcCoA levels) | cytosolic AcCoA levels (AcCoA levels) | autophagic flux (GFP-LC3 puncta formation, LC3 lipidation) [1] | abolition of the effects of AcCoA-replenishing agents on starvation-induced protein deacetylation and autophagy [1] | AcCoA levels in starved cells (AcCoA levels) | starvation-induced autophagy (GFP-LC3 puncta, LC3 lipidation, autophagic flux) [1]
O=C(O)c1cccc(C(=O)O)c1C(=O)O [BTC, 1,2,3-benzenetricarboxylate] | reduced both AcCoA levels | induced the triad of AcCoA depletion | increased autophagic flux; also recorded: induced the triad | cancelled the inhibitory effects; also recorded: abolished both the protein hyperacetylation and autophagy suppression | – | –
COC(=O)CCC(=O)C(=O)OC [DMKG, dimethyl-α-ketoglutarate] | – | also raised the cytosolic concentration of AcCoA | – | – | increased cellular AcCoA levels; also recorded: maintained high AcCoA | abolished starvation-induced autophagy; also recorded: low autophagy
O=C(O)CC(O)(C(=O)O)C(O)C(=O)O (stereo not drawn) [HC, hydroxycitrate] | reduced both AcCoA levels | reduced cytoplasmic AcCoA levels | increased autophagic flux; also recorded: induce autophagic flux; also recorded: strongly stimulated autophagy both in vitro and in vivo; also recorded: stimulated autophagic flux in cultured cancer cells | cancelled the inhibitory effects; also recorded: abolished both the protein hyperacetylation and autophagy suppression | – | –
CC(C)CC(=O)C(=O)O [KIC, ketoisocaproic acid] | – | also raised the cytosolic concentration of AcCoA | – | – | increase in AcCoA levels; also recorded: sufficient to avoid AcCoA depletion | inhibition of starvation induced autophagy; also recorded: inhibited the starvation-induced increase in autophagic flux; also recorded: more efficient than leucine in suppressing autophagy
O=C(O)CCCCC1CCSS1 (stereo not drawn) [LA, lipoic acid] | – | also raised the cytosolic concentration of AcCoA | – | – | increased both cellular AcCoA levels; also recorded: maintain high AcCoA | abolished starvation-induced autophagy; also recorded: blunted starvation-induced mTORC1 inhibition, AMPK activation and autophagy flux
N#CC(=Cc1cn(-c2ccccc2)c2ccccc12)C(=O)O [UK5099, 2-Cyano-3-(1-phenyl-1H-indol-3-yl)-2-propenoic acid] | reduced both AcCoA levels; also recorded: depletion of intracellular AcCoA | also raised the cytosolic concentration of AcCoA | increased autophagic flux; also recorded: induction of GFP-LC3 puncta and lipidation of endogenous LC3-I to LC3-II; also recorded: induction of GFP-LC3 puncta, and lipidation of endogenous LC3-I to LC3-II | – | – | –
CC1=NN(c2ccc(C(=O)O)cc2)C(=O)/C1=C\c1ccc(-c2cc(C)c(C)cc2[N+](=O)[O-])o1 [c646] | – | – | induced autophagy both in vitro, in cultured cells, and in vivo, in mice | precluded the inhibitory effect of AcCoA-replenishing agents on starvation-induced autophagy | – | –
CC(C)C[C@H](N)C(=O)O [leucine] | – | – | – | – | sufficient to maintain high AcCoA levels | suppression of autophagy
